Measurements from publication PMC6704710, “Preclinical evaluation of 3D185, a novel potent inhibitor of FGFR1/2/3 and CSF-1R, in FGFR-dependent and macrophage-dominant cancer models” (Journal of Experimental & Clinical Cancer Research : CR, 2019).

Experiments:
[1] = molecular target: T1, Abl(h) (Homo sapiens, UniProt P00519); test: Eurofins kinase panel; format: biochemical; details: read-out: Inhibition rate (%)
T1 construct: purchased Eurofins (KinaseProfiler)

[2] = molecular target: T2, ACK1(h) (Homo sapiens, UniProt Q07912); test: Eurofins kinase panel; format: biochemical; details: read-out: Inhibition rate (%)
T2 construct: purchased Eurofins (KinaseProfiler)

[3] = molecular target: T3, ALK2(h) (Homo sapiens, UniProt Q04771); test: Eurofins kinase panel; format: biochemical; details: read-out: Inhibition rate (%)
T3 construct: purchased Eurofins (KinaseProfiler)
T3 sequence (Q04771 21-509): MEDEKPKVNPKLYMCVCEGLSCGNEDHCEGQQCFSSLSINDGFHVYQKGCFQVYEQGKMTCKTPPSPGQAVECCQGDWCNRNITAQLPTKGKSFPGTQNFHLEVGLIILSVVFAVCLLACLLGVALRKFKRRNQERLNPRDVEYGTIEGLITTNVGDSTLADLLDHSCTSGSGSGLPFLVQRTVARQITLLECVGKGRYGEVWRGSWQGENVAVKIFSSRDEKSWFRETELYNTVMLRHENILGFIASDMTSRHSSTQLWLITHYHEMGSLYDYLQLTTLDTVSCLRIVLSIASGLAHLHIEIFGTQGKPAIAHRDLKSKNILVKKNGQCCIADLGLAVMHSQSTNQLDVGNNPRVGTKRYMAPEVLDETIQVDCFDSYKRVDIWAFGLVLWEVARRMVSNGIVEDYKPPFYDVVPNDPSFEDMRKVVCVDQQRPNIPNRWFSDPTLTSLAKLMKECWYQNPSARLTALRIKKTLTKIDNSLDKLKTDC

[4] = molecular target: T4, BTK(R28H)(h) (Homo sapiens, UniProt Q06187, R28H); test: Eurofins kinase panel; format: biochemical; details: read-out: Inhibition rate (%)
T4 construct: purchased Eurofins (KinaseProfiler)

[5] = molecular target: T5, CDKL1(h) (Homo sapiens, UniProt Q00532); test: Eurofins kinase panel; format: biochemical; details: read-out: Inhibition rate (%)
T5 construct: purchased Eurofins (KinaseProfiler)
T5 sequence (Q00532 whole entry): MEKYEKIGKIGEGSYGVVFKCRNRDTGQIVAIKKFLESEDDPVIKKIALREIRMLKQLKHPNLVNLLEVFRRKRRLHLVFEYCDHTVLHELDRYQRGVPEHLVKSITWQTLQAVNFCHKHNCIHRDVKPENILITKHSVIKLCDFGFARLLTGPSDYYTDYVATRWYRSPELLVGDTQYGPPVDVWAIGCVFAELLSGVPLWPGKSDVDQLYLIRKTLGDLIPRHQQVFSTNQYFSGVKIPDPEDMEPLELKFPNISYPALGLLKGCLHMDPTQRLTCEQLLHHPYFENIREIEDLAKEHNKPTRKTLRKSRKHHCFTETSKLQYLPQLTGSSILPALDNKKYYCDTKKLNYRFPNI

[6] = molecular target: T6, EphA2(h) (Homo sapiens, UniProt P29317); test: Eurofins kinase panel; format: biochemical; details: read-out: Inhibition rate (%)
T6 construct: purchased Eurofins (KinaseProfiler)
T6 sequence (P29317 24-976): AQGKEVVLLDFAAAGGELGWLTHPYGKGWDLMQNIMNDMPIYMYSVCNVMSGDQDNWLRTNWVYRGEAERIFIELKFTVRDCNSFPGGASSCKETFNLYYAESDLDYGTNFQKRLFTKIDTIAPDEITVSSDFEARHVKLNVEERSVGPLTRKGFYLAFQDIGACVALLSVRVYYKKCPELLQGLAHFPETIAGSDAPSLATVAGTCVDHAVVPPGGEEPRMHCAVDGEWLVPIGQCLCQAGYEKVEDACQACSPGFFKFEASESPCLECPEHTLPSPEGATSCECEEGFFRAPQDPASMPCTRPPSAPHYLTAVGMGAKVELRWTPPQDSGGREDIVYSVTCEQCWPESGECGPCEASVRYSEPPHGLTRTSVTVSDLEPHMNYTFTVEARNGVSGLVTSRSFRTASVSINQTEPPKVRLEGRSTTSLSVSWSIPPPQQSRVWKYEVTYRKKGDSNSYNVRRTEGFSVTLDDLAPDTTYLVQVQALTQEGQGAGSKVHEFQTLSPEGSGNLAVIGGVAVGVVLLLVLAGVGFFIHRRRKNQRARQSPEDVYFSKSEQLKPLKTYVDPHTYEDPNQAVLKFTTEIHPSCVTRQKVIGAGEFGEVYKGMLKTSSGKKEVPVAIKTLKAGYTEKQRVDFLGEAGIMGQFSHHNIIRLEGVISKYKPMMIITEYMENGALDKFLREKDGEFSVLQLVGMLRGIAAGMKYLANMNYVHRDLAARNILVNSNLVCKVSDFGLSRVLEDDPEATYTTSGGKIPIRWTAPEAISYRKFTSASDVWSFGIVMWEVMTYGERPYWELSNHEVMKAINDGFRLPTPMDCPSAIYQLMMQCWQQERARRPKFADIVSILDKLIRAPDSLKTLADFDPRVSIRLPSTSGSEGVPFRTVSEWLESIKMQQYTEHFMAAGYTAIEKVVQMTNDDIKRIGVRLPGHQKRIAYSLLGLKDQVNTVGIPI

[7] = molecular target: T7, CDK13/cyclinK(h) (Homo sapiens, UniProt Q14004); test: Eurofins kinase panel; format: biochemical; details: read-out: Inhibition rate (%)
T7 construct: purchased Eurofins (KinaseProfiler)
T7 sequence (Q14004 whole entry): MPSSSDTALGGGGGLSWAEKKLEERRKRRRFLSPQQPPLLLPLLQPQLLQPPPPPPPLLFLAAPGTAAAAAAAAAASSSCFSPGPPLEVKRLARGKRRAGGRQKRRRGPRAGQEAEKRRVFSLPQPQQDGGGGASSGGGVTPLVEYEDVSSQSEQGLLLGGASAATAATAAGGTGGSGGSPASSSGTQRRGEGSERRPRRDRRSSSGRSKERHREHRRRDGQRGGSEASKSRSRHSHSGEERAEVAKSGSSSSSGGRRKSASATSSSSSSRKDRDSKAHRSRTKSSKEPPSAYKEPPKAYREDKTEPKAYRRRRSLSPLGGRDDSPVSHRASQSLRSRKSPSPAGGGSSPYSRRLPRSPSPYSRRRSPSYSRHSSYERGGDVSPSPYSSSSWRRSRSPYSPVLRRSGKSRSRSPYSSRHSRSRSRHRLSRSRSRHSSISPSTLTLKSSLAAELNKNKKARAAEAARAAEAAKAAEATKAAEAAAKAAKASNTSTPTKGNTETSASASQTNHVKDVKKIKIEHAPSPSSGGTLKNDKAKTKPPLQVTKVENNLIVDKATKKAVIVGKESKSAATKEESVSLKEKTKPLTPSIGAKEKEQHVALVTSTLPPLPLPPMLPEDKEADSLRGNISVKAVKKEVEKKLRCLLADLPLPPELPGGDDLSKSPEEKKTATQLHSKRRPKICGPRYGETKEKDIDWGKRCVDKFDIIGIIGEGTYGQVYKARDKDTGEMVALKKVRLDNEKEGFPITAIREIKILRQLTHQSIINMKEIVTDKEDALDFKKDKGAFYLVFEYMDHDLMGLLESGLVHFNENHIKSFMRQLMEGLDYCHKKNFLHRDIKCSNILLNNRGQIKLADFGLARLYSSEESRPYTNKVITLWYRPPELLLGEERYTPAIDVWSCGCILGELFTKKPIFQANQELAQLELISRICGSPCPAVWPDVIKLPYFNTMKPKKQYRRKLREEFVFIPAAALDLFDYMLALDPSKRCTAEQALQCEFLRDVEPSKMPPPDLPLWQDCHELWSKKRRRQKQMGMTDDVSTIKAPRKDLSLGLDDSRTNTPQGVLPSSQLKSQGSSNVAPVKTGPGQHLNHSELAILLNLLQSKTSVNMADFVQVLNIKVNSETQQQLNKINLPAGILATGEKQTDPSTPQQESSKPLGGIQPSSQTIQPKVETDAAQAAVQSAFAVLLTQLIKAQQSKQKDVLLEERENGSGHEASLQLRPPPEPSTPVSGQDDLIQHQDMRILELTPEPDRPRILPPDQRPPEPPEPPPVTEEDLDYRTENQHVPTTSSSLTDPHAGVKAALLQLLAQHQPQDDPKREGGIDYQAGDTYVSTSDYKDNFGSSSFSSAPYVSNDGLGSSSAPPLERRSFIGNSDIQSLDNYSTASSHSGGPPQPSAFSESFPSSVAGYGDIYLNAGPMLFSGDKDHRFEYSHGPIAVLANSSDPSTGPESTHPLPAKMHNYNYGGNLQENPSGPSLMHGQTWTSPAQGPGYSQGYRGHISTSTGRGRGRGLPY
T7 sequence (O75909 whole entry partner): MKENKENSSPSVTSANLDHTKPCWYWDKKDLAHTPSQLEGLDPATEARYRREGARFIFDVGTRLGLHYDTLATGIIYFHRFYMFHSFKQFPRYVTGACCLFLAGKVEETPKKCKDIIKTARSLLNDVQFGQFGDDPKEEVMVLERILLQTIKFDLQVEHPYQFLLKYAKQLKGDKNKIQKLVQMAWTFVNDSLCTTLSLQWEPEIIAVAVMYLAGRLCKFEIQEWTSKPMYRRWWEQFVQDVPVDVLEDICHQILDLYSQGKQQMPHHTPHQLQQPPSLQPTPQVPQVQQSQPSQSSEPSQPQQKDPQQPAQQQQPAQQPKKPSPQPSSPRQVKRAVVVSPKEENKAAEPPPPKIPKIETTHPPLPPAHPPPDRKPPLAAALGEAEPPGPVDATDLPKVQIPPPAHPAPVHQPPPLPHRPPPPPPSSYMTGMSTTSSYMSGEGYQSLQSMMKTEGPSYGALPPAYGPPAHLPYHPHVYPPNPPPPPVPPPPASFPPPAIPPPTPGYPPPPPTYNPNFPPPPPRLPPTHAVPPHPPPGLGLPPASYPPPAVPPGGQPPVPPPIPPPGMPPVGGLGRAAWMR
Method: (§1) Active FGFR1–4, VEGFR1, KDR, VEGFR3, PDGFRα and PDGFRβ proteins were purchased from Eurofins (Fremont, United States), and kinase activity was assessed using ELISA, as previously reported. The broader kinase selectivity profile of 3D185 (0.01, 0.1, and 1 μM) was determined by Eurofins by screening the compound against 372 human recombinant kinases. Increasing concentrations of ATP were diluted for the kinase reaction in the ATP competition assay. CSF-1R kinase activity was analyzed using the Z’-LYTE™ Kinase Assay Kit (Thermo Fisher, United States). The assay formats are described in the SelectScreen Kinase Profiling Service Zlyte protocol. IC50 values were calculated by dose-response curve fitting using Prism (Graph Pad).

[8] = molecular target: T8, PRP4(h) (Homo sapiens, UniProt Q13523); test: Eurofins kinase panel; format: biochemical; details: read-out: Inhibition rate (%)
T8 construct: purchased Eurofins (KinaseProfiler)
T8 sequence (Q13523 whole entry): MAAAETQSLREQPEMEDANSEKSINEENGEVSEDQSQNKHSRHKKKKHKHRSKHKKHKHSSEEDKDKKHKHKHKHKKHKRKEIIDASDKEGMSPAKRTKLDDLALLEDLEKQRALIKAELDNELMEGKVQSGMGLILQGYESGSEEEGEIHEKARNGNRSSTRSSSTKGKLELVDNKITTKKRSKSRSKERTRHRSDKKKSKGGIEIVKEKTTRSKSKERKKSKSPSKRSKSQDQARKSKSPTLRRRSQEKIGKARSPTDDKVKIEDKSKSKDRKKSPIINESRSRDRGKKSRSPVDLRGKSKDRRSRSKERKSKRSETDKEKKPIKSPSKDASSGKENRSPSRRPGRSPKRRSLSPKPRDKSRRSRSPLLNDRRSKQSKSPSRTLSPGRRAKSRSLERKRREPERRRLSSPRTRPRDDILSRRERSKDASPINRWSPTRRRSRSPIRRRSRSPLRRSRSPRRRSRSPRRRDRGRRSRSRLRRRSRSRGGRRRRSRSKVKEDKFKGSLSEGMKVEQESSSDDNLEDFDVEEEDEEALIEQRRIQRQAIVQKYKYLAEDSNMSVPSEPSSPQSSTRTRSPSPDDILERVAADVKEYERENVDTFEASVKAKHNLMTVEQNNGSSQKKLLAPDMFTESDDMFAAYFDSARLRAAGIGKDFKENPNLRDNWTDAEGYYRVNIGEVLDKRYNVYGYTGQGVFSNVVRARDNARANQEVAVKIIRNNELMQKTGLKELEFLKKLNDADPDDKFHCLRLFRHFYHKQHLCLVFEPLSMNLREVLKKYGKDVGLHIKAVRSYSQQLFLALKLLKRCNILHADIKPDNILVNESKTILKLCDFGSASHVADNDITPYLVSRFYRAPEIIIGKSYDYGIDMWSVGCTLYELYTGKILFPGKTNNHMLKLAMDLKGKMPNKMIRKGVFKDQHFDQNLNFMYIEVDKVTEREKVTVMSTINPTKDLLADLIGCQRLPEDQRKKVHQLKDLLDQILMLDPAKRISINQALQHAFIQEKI
Method: as §1

[9] = molecular target: T9, SIK2(h) (Homo sapiens, UniProt Q9H0K1); test: Eurofins kinase panel; format: biochemical; details: read-out: Inhibition rate (%)
T9 construct: purchased Eurofins (KinaseProfiler)

[10] = molecular target: T10, SNRK(h) (Homo sapiens, UniProt Q9NRH2); test: Eurofins kinase panel; format: biochemical; details: read-out: Inhibition rate (%)
T10 construct: purchased Eurofins (KinaseProfiler)
T10 sequence (Q9NRH2 1-765): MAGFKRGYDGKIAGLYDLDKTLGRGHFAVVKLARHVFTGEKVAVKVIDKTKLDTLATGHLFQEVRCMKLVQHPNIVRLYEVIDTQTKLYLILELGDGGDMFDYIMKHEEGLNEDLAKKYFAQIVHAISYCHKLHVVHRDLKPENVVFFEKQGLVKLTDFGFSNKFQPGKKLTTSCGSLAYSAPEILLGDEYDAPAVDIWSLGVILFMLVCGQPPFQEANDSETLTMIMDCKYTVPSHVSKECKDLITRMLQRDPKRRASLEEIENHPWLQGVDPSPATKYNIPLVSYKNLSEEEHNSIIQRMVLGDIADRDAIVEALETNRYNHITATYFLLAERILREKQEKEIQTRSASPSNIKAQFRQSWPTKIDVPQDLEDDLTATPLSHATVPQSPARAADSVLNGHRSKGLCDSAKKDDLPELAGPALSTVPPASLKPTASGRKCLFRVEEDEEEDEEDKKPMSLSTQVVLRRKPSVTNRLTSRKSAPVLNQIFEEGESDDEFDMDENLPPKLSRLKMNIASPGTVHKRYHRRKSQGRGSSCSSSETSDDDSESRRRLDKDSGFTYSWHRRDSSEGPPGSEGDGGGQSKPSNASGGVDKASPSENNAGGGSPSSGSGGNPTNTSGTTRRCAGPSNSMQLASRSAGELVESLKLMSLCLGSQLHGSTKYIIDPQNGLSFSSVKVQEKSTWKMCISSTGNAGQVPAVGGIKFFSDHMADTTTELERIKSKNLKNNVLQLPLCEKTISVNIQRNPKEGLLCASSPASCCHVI

[11] = molecular target: T11, STK32B(h) (Homo sapiens, UniProt Q9NY57); test: Eurofins kinase panel; format: biochemical; details: read-out: Inhibition rate (%)
T11 construct: purchased Eurofins (KinaseProfiler)
T11 sequence (Q9NY57 whole entry): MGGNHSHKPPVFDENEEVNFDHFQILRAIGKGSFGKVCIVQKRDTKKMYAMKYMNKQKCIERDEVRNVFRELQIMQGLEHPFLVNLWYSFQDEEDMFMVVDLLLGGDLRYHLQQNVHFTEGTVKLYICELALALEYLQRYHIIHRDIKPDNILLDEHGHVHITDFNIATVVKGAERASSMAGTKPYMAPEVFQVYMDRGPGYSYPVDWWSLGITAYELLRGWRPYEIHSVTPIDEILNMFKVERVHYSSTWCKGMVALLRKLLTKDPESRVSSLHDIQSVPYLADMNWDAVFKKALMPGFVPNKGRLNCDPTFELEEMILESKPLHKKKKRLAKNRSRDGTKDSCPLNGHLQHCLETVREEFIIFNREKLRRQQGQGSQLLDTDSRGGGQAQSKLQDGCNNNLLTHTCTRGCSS

[12] = test system: M-NFS-60; test: Cell proliferation assay; format: cell-based, mouse; details: Mus musculus; 72 h, mean ± SD
Method: The cancer cell lines indicated in Figure 3 were seeded in 96-well plates at a low density in growth medium. The next day, appropriate controls or the designated concentrations of the compounds were added to each well, and the cells were incubated for 72 h. HUVECs (passage 3) were seeded in 96-well plates in growth medium overnight and transferred to serum-free medium for 24 h. The following day, appropriate controls or the designated concentrations of the compounds were added to each well, and 100 ng/mL growth factor (bFGF or VEGF) was added to the indicated wells. The cells were incubated for 48 h. Finally, cell proliferation was determined using a sulforhodamine B (SRB) assay or a cell counting kit-8 (CCK-8) assay. […] IC50 values for proliferation curves were calculated using a 4-parameter logistic nonlinear regression model with SoftMax Pro Software (Molecular Devices, San Jose, USA).

Work on `COc1cc(OC)c(Cl)c(-c2ccc3c(NC(=O)c4ccc(N5CCNC(C)(C)C5)cc4)n[nH]c3n2)c1Cl` [3D185] yielded an inhibition at 0.01 µM ([1]; 10 nM) of 3%, an inhibition at 0.1 µM ([1]; 100 nM) of 43% and an inhibition at 1 µM ([1]; 1000 nM) of 81%. The inhibition at 0.01 µM ([2]; 10 nM) was 1%, the inhibition at 0.1 µM ([2]; 100 nM) was 37% and the inhibition at 1 µM ([2]; 1000 nM) was 90%. The inhibition at 0.01 µM ([3]; 10 nM) was -10%, the inhibition at 0.1 µM ([3]; 100 nM) was -15% and the inhibition at 1 µM ([3]; 1000 nM) was -4%. For the same compound, the inhibition at 0.01 µM ([4]; 10 nM) was -3%, the inhibition at 0.1 µM ([4]; 100 nM) was -2% and the inhibition at 1 µM ([4]; 1000 nM) was -4%. It also gave an inhibition at 0.01 µM ([5]; 10 nM) of 3%, an inhibition at 0.1 µM ([5]; 100 nM) of -5% and an inhibition at 1 µM ([5]; 1000 nM) of 0%. The inhibition at 0.01 µM ([6]; 10 nM) was 13%, the inhibition at 0.1 µM ([6]; 100 nM) was 24% and the inhibition at 1 µM ([6]; 1000 nM) was 73%. For the same compound, the inhibition at 0.01 µM ([7]; 10 nM) was -16%, the inhibition at 0.1 µM ([7]; 100 nM) was 8% and the inhibition at 1 µM ([7]; 1000 nM) was 1%. For the same compound, the inhibition at 0.01 µM ([8]; 10 nM) was -8%, the inhibition at 0.1 µM ([8]; 100 nM) was -9% and the inhibition at 1 µM ([8]; 1000 nM) was -1%. The inhibition at 0.01 µM ([9]; 10 nM) was 7%, the inhibition at 0.1 µM ([9]; 100 nM) was 5% and the inhibition at 1 µM ([9]; 1000 nM) was 4%. The inhibition at 0.01 µM ([10]; 10 nM) was -8%, the inhibition at 0.1 µM ([10]; 100 nM) was -42% and the inhibition at 1 µM ([10]; 1000 nM) was -44%. The inhibition at 0.01 µM ([11]; 10 nM) was 1%, the inhibition at 0.1 µM ([11]; 100 nM) was 1% and the inhibition at 1 µM ([11]; 1000 nM) was 0%. The IC50 [12] was 16.7 ± 2.5 nM.
